The record followed here is EPA's ToxValDB 9.5 (doi:10.2903/j.efsa.2006.54).

One data set has as its system Apis mellifera. To be noted: acute, mortality.
A further data set deals with Anatidae. To be noted: short-term; oral; feed; mortality.
The next data set relates to Typhlodromus pyri. To be noted: not reported; reproduction.
The next data set has as its system Canidae. To be noted: chronic; duration: 2 years; oral; Dog Other; clinical chemistry.
The next data set has as its system Daphnia magna. To be noted: chronic/long-term; duration: 21 days; reproduction.
For another data set, the system named is Aphidius rhopalosiphi. Nature of the data set: LR50; higher = less toxic. To be noted: not reported; mortality.

The compound `CCOP(=O)=O.CCOP(=O)=O.CCOP(=O)=O.[Al+3]` [Fosetyl aluminum] had an LD50 in the data set with Apis mellifera (dermal) above 1000 µg/piece; an LD50 with Apis mellifera (duration: 48 hours, oral, unspecified) of 462 µg/piece; an LD50 (acute, mortality) above 7080 mg/kg; an LD50 in the data set with Coturnix coturnix (acute, oral, mortality) of 5000 mg/kg. The same compound yielded an NOEC (reproductive, oral, feed) of 439 mg/kg-day; an NOEC in the data set with Coturnix coturnix (reproduction developmental) of 216 mg/kg-day; an NOEC in the data set with Oncorhynchus mykiss (chronic/long-term, duration: 28 days, growth) of 100 mg/L; an NOEC in the data set with Daphnia magna of 17 mg/L; an NOEC with Tagia sp. (chronic/long-term, reproduction) of 1670 mg/kg. The LC50 in the data set on Oncorhynchus mykiss (acute, duration: 96 hours, mortality) was above 60 µg/mL; with Anatidae it was above 3540 mg/kg-day; in the data set on Tagia sp. (acute, mortality) it was above 1000 mg/kg. Further, the LEL in the data set on Typhlodromus pyri was determined as 15000 g/ha. The NOAEL (usually the highest dose or exposure tested at which no adverse effect was seen) in the data set on Canidae is 300 mg/kg-day; in the data set with Rattus norvegicus (chronic, duration: 2 years, oral, clinical chemistry), 300 mg/kg-day; with Rattus norvegicus (subchronic, duration: 90 days, histopathology: nonneoplastic), 500 mg/kg-day. In addition, the LR50 with Aphidius rhopalosiphi was above 64000 g/ha.
